Reference: PMC4805777 (International Journal for Parasitology: Drugs and Drug …, 2016)

Tested on: T. cruzi (Strain H1)
Assay: T. cruzi in vivo assay, second study
Parameters: species or system Trypanosoma cruzi
Settings: BALB/c mice, 100 mg/kg/day orally, 21 days (method: 20 days)

Question: `O=C(Cn1ccnc1[N+](=O)[O-])NCc1ccccc1` [Benznidazole] was tested. Which “parasitemia, in words” value did it give?
Answer: The value was “undetectable”.

Question: What about the “survival, in words” value (50-day study) of the same compound?
Answer: The value was “all the mice survived”.
